Data reported in patent US7399746B2, “Agents for wound healing” (McGill University, priority 2004, dated 2008).

Assays:
[1] = test system: primary human skin fibroblasts; assay: in vitro wound healing, monolayer of skin fibroblasts; assay type: cell-based; conditions: FIG. 1B; for wound reduction: serum-free medium, two days
Protocol: (§1) Wound healing was measured using an art-established monolayer cell culture method (Nwomeh, et al. (1998) supra). Cells to be studied were plated in 48-well tissue culture plates at a cell density appropriate for obtaining confluent monolayers after one day in culture. Circular wounds were made in the center of the wells by placing a siliconized 200 μL tip into the well and lifting the cells from the plastic by applying suction. The successful creation of wounds was analysed using a phase contrast microscope. Cells were subsequently treated with control media or media containing the factors to be tested. The size of the wounds was immediately recorded for each well. The wounds were large enough to allow for a long-term incubation thereby improving the accuracy of the determinations. After one or two days in culture (depending on the cells studied), the size of the wounds was measured again. Wound dimensions were evaluated with a Leica MZFL11 stereo microscope. Computer images of the wounds were recorded with imaging software and contours of each wound before and after treatment were traced manually. Collections of contours for all wounds were converted to BMP files and quantitated using the Band-Leader program. The results were expressed as % reduction of wounds taking as 100% the reduction obtained in control cell cultures. No change corresponded to 0%, whereas complete closure corresponded to 100%. This system works well with close monitoring of cell densities. To prevent excess cell growth, the incubations were performed in serum-free medium supplemented with a single protein, transferrin (5 μg/mL). The absence of serum slowed down the healing process (one day in LLC-PK1 cells, two days in all other cultures), but reflected more accurately the situation likely to prevail in topical applications in vivo. Wound closure depends on the migration of cells at the sites of the wound and on cell proliferation. In these experiments, wound closure was being analysed, independent of the mechanism involved.
Cells analysed in the in vitro assay disclosed herein included monolayers of LLC-PK1 cells, a porcine kidney epithelial cell line used as an experimental system of wound healing for acute renal failure (Sponsel, et al. (1994) supra); monolayers of primary human skin fibroblasts; and monolayers of human skin keratinocytes. […] This made measurements of keratinocyte wound closure particularly difficult and time consuming. According, wound closure measurements of a cross created with two perpendicular cell lesions was particularly effective for analysing human skin keratinocytes (Sponsel, et al. (1994) supra).

[2] = test system: LLC-PK1 cells, a porcine kidney epithelial cell line; assay: in vitro wound healing, monolayer of kidney epithelial cells; assay type: cell-based; conditions: FIG. 1A
Protocol: as §1, with “The wounds were large enough to allow for a long-term incubation thereby improving the accuracy of the determinations.” left out, “No change corresponded to 0%, whereas complete closure corresponded to 100%. This system works well with close monitoring of cell densities. To prevent excess cell growth, the incubations were performed in serum-free medium supplemented with a single protein, transferrin (5 μg/mL). The absence of serum slowed down the healing process (one day in LLC-PK1 cells, two days in all other cultures), but reflected more accurately the situation likely to prevail in topical applications in vivo. Wound closure depends on the migration of cells at the sites of the wound and on cell proliferation.” left out, “involved. […]” for “involved.”

[3] = test system: human skin keratinocytes; assay: in vitro wound healing, monolayer of skin keratinocytes; assay type: cell-based; conditions: FIG. 1C
Protocol: as §1, with “The absence of serum slowed down the healing process (one day in LLC-PK1 cells, two days in all other cultures), but reflected more accurately the situation likely to prevail in topical applications in vivo. Wound closure depends on the migration of cells at the sites of the wound and on cell proliferation.” left out
Cells analysed in the in vitro assay disclosed herein included monolayers of LLC-PK1 cells, a porcine kidney epithelial cell line used as an experimental system of wound healing for acute renal failure (Sponsel, et al. (1994) supra); monolayers of primary human skin fibroblasts; and monolayers of human skin keratinocytes. […]

[4] = test system: hepatoma cell line Hep G2; assay: cell proliferation, Alamar blue, Hep G2; assay type: cell-based; conditions: Hep G2, 20 μM, FIG. 3B (n=21, p<0.001 for C26)
Protocol: (§2) The effects of IGF-API, API and C26 on cell proliferation were also evaluated using the art-established Alamar blue technique developed for hematopoietic cells or endothelial cells (DiFalco, et al. (1997) Biochem. J. 326:407-13; DiFalco & Congote (2002) Cytokine 18 (1):51-60; Sandoval, et al. (2002) supra). Five thousand cells per well were plated in 96-well plates and grown over night in complete cell culture medium. The cells were subsequently starved for one day in serum-free medium supplemented with 5 μg/mL bovine transferrin and 200 μg/mL fatty-acid free, tissue culture-tested, bovine serum albumin and incubated for two days in the presence of the API derivatives indicated. For experiments with the hepatoma cell line, Hep G2, only 3000 cells were plated per well.
(§3) Cell proliferation with EGF and C26 was also analysed for keratinocytes and Hep G2 cells. The number of experiments using keratinocytes with EGF was five, and 10 to 11 with C26. The number of experiments using Hep G2 with EGF and C26 was five, except for 20 nM EGF (n=8, P<0.05, paired t-test) and for 20 μM C26 (n=21, p<0.001, paired t-test and Student-Newman-Keuls test). All other P values were according to the Student-Newman-Keul multiple comparisons test.

[5] = test system: human skin fibroblast cultures; assay: cell proliferation, Alamar blue, skin fibroblasts; assay type: cell-based; conditions: two days, FIG. 2B
Protocol: as §2

[6] = test system: human skin keratinocytes; assay: cell proliferation, Alamar blue, keratinocytes; assay type: cell-based
Protocol: as §2, §3

[7] = test system: kidney epithelial cells; assay: cell proliferation, Alamar blue, kidney epithelial cells; assay type: cell-based, porcine; conditions: two days, FIG. 2A
Protocol: as §2

Row | Substance | concentration with significant effect on wound reduction [1] [µM] | wound reduction [1] | concentration at which effective/active in wound reduction [2] [nM] | concentration with effect on wound reduction [3] [nM] | wound reduction [3] | cell proliferation [4] | cell proliferation [5] | cell proliferation compared to EGF ([6]; equivalent concentrations of EGF, FIG. 3A) | cell proliferation ([6]; two days, FIG. 2C) | cell proliferation [7]
1 | API: alpha-1 proteinase inhibitor, also known as alpha-1-antitrypsin, the major physiological inhibitor of neutrophil elastase | 0.02 | significant, but lower than the effects obtained with IGF-API | 0.16 | 8 | marginal, but significant effect |  |  |  |  | 
2 | C26: small peptide corresponding to the last 26 amino acids of API (SEQ ID NO:2) (PFVFLMIEQNTKSPLFMGKVVNPTQK) | 8 | significant, but lower than the effects obtained with IGF-API | 32 |  | no significant effect | significantly increased cell proliferation | marginally stimulated cell proliferation | higher than the effects of equivalent concentrations of epidermal growth factor | marginally stimulated cell proliferation | marginally stimulated cell proliferation
